Measured values as given in patent publication US9492508B2, “Parathyroid hormone analogs and uses thereof” (The General Hospital Corporation, priority 2010, dated 2016).
Ends that are not written are not given here.

How the values were obtained:
human PTHR1 (RG) = biological target: T1, human PTHR1 (RG) (Homo sapiens, UniProt Q03431); assay: Competition binding, RG conformation of human PTHR1 (COS-7 membranes); settings: mean of 3 experiments, read-out: Binding human PTHR1 IC50 (Log M) RG (converted)
T1 construct: expressed in transfected cells; host or cells: COS-7 cells (membranes)
T1 sequence (Q03431 27-593): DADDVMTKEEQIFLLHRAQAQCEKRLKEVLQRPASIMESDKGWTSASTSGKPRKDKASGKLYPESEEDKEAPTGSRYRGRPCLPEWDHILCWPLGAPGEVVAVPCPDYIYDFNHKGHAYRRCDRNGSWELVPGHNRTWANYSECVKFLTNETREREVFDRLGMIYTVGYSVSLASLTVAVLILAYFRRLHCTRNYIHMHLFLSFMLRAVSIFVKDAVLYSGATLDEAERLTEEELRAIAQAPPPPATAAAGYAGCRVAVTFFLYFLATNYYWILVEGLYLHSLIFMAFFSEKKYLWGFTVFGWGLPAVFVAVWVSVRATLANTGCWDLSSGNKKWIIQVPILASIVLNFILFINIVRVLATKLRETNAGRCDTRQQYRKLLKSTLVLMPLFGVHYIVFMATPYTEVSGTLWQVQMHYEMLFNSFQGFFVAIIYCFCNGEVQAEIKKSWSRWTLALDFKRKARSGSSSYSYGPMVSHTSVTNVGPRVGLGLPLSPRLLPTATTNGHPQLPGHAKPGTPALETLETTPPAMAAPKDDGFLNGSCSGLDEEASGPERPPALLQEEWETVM
Protocol: Briefly, the R^0 form of the receptor can be favored by addition of the non-hydrolyzable nucleotide analog GTPγS. The RG form can be favored, for example, by co-transfection of cells with a negative dominant Gαs subunit. […] Data are means of four experiments, each performed in duplicate. Curves were fit to the data using Graph-Pad Prism 4.0.
Here, competition binding assays for the R^0 and RG PTHR1 conformation were performed in membranes prepared from transfected COS-7 cells, as described by Dean et al., Mol Endocrinol 22:156-66, 2008. Data are means of three experiments, each performed in duplicate. Curves were fit to the data using Graph-Pad Prism 4.0.

[1] = rat, in vivo, iv, 24.3 nmol/kg
[2] = Repetitive daily dosing in TPTX rats (10 days); format: in vivo, rat
Protocol: FIGS. 20A-20D are graphs showing effects of once-daily SP-PTH on serum and urine Ca in TPTX rats. TPTX and sham-control rats were treated once daily, for 10 days, via sc. injection with either vehicle (Sham and TPTX) or SP-PTH (SEQ ID NO:11) (1, 2. 4, or 8 nmol/kg), or with 1,25(OH)2D (0.075 or 0.2 μg/kg. orn). After the last injection on day 10, the rats were placed in metabolic cages, and jugular vein blood was obtained at 8 (FIG. 20A) and 24 hrs (FIG. 20B); urine was collected for the intervals 0-8 (FIG. 20C) and 8-24 hrs (FIG. 20D); means±s.e.m: n=5; ′˜, P vs vehicle <005.
In therapeutic use in humans, one would administer doses sufficient to only normalize blood Ca. A key experiment is to determine if it is indeed feasible to normalize sCa following a repetitive dosing regimen. We thus performed the experiment of FIGS. 20A-2D, in which TPTX rats were treated daily for 10 days with SP-PTH at doses of 1, 2, 4 and 8 nmol/kg (s.c). For comparison, 1,25(OH)2-vitamin-D (calcitriol) at doses of 0.075 and 0.2 mcg/kg (oral) were used for the same time periods.

[3] = 4 nmol/kg s.c. once daily 10 days

Row | Substance | IC50 (human PTHR1 (RG)) [nM] | AUCinf [1] [pmol·min/mL] | sCa at 8 hours after the last injection [2, 3] | sCa at 24 hours after the last injection [2, 3] | urine calcium excretion ([2]; SP-PTH 4 nmol/kg s.c. once daily 10 days)
1 | AVAEIQLMHQRAKWIQDARRRAFLHKLIAEIHTAEI-OH [SP-PTH-AAK, [Ala^1,3,12,18,22,Gln^10,Arg^11,Trp^14,Lys^26]PTH(1-14)/PTHrP(15-36)] | 0.224 | 1131 | – | – | –
2 | AVAEIQLMHQRAKWIQDLRRRFFLHHLIAEIHTAEI-OH [SP-PTH, [Ala^1,3,12,Gln^10,Arg^11,Trp^14]PTH(1-14)/PTHrP(15-36)] | – | – | avoided hypercalcemia | maintained near-normal sCa | low at all time points
